What all share (assay): NCI tumour cell line growth inhibition, 48 h
For experiment [1], the system named is EKVX NSCLC.
In experiment [2] the test system is BT-549 breast.
Experiment [3] has as its system HT29 colon.
Experiment [4] has as its system K-562 leukemia.
Experiment [5] has as its system HCT-15 colon.
The subject of experiment [6] is NCI-H23 lung.
Experiment [7] concerns MOLT-4 leukemia.
Experiment [8] concerns SK-MEL-5 melanoma.
The test system of experiment [9] is PC-3 prostate.
In experiment [10] the test system is SN12C renal.

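The compound was tested at five concentrations on cells cultured in 96-well plates, with a 48-hour exposure period. GI50 = concentration required for 50% inhibition of growth. TGI is the concentration that stops growth completely.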 Where only a bound is given, the exact number is not on record here.

For the molecule `COc1ccc2cc(-c3cnc4nonc4n3)ccc2c1`, the GI50 is 0.83 µM in experiment [1]; 4.39 µM in experiment [2]; 2.97 µM in experiment [3]; 0.468 µM in experiment [4]; 0.684 µM in [5]; 4.49 µM in experiment [6]. Besides, the GI50 in experiment [7] was 1.92 µM; in experiment [8], 1.24 µM; in [9], 2.11 µM; in experiment [10], 5.28 µM. Moreover, the TGI in experiment [1], in experiment [2], in [3], in experiment [4], in experiment [5] and in [6] was greater than 100 µM each time. In addition, the TGI is greater than 100 µM in experiment [7], 8.5 µM in experiment [8], greater than 100 µM in experiment [9] and greater than 100 µM in experiment [10].

Consider `Cc1ccc(OP(=O)(Oc2ccc(C)cc2)N2C=Cc3ccccc3C2C#N)cc1` (configuration not stated), for which the TGI in experiment [1], in experiment [2], in experiment [3], in [4], in experiment [5] and in [6] was greater than 100 µM each time. In addition, the TGI in experiment [7], in [8], in experiment [9] and in [10] was greater than 100 µM each time.

With `OC1CC2CCC(C1)N2CCCN1c2ccccc2Sc2ccc(Cl)cc21` (configuration not stated), the TGI in [1] was 10.1 µM; in [2], 10.7 µM; in experiment [3] it was 3.63 µM; in [4], 4.61 µM; in [5], 6.65 µM; in experiment [6] it was 8.12 µM. Also, the TGI in experiment [7] came out at 5.8 µM; in [8] it was 3.13 µM; in experiment [9] it was 4.8 µM; in [10] it was 13.7 µM.

Take `COc1ccccc1C#Cc1ccccc1C#Cc1ccc(OCCCCCCOc2ccccc2C#Cc2ccccc2C#Cc2ccccc2OC)cc1`: the GI50 in experiment [1], in experiment [2], in experiment [3], in experiment [4], in experiment [5] and in [6] was greater than 100 µM each time. In addition, the GI50 in experiment [7], in [8], in experiment [9] and in experiment [10] was greater than 100 µM in each case. The TGI in experiment [1], in [2], in experiment [3], in experiment [4], in [5] and in experiment [6] was greater than 100 µM throughout. For the same molecule, the TGI in [7], in experiment [8], in experiment [9] and in experiment [10] was greater than 100 µM in each case.

Regarding `COC[C@H](NC(=O)c1cnc(C)s1)C(=O)N[C@@H](COC)C(=O)N[C@@H](Cc1ccccc1)C(=O)[C@@]1(C)CO1`, the GI50 in [1] was 44.4 µM; in experiment [2] it was 14.3 µM; in [3], 21.1 µM; in experiment [4], 37.8 µM; in [5], 31.2 µM; in experiment [6], 36.6 µM. Also, the GI50 in experiment [7] was 23.8 µM; in [8], 19.9 µM; in experiment [9], 50.1 µM; in [10] it was 37.6 µM. Moreover, the TGI in [1] was greater than 100 µM; in [2] it was 42.6 µM; in experiment [3] it was greater than 75.7 µM; in [4], greater than 100 µM; in [5] it was greater than 100 µM; in [6], greater than 100 µM. The TGI in experiment [7] is greater than 100 µM; in experiment [8], 47.1 µM; in experiment [9], greater than 100 µM; in experiment [10] it was greater than 100 µM.

`Cc1ccc(CNc2ccc3nc(CCC4CCCCC4)[nH]c3c2)cc1`: the GI50 in experiment [1] was 2.12 µM; in experiment [2], 2.45 µM; in experiment [3] it was 1.88 µM; in experiment [4] it was 2.1 µM; in experiment [5], 1.94 µM; in experiment [6] it was 2.1 µM. In addition, the GI50 in experiment [7] was 2.76 µM; in experiment [8], 1.69 µM; in [9], 2.39 µM; in experiment [10], 2.77 µM. Also, the TGI amounted to 6.47 µM in [1]; 7.34 µM in experiment [2]; 5.19 µM in experiment [3]; 5.47 µM in experiment [4]; 6.82 µM in [5]; 4.88 µM in experiment [6]. The TGI in experiment [7] is 9.71 µM; in experiment [8], 3.09 µM; in experiment [9], 8.61 µM; in experiment [10] it was 11.4 µM.

For `CC1=C([Te]c2ccccc2)C(=O)c2ccccc2C1=O`, the GI50 in experiment [1] is 0.207 µM; in [2], 0.232 µM; in experiment [3] it was 0.344 µM; in experiment [4] it was 1.07 µM; in experiment [5], 0.346 µM; in experiment [6], 0.298 µM. For the same molecule, the GI50 in [7] is 0.287 µM; in experiment [8], 0.799 µM; in [9], 0.297 µM; in experiment [10], 0.311 µM. Also, the TGI in experiment [1] stood at 0.76 µM; in experiment [2], 0.842 µM; in experiment [3], 1.36 µM; in experiment [4], 3.4 µM; in [5] it was 1.56 µM; in [6], 1.05 µM. The TGI in experiment [7] turned out to be 1.3 µM; in experiment [8] it was 2.03 µM; in experiment [9], 2.03 µM; in [10], 1.47 µM.

`O=c1cc(-c2ccc(F)cc2)[nH]c2ncccc12`: the TGI in experiment [1], in experiment [2], in experiment [3], in experiment [4], in [5] and in [6] was greater than 100 µM each time. Besides, the TGI in experiment [7], in experiment [8], in [9] and in experiment [10] was greater than 100 µM each time. For the same molecule, the results for the GI50 in experiment [8] and in [9] were 30.3 µM and 46.1 µM, respectively.

These data come from PubChem BioAssay (NCI).
